Assay results taken from patent publication USRE39591E1, “6-O-substituted ketolides having antibacterial activity” (Abbott Laboratories, priority 1996, dated 2007).

Test system: up to 32 different microorganisms
Assay: in vitro antibacterial activity (MIC), agar dilution on Brain Heart Infusion (BHI) agar with Steers replicator
Format: cell-based
Conditions: unit assumed
Method: Representative compounds of the present invention were assayed in vitro for antibacterial activity as follows: Twelve petri dishes containing successive aqueous dilutions of the test compound mixed with 10 mL of sterilized Brain Heart Infusion (BHI) agar (Difco 0148-01-5) were prepared. Each plate was inoculated with 1:100 (or 1:10 for slow-growing strains, such as Micrococcus and Streptococcus) dilutions of up to 32 different microorganisms, using a Steers replicator block. The inoculated plates were incubated at 35°-37° C. for 20 to 24 hours. In addition, a control plate, using BHI agar containing no test compound, was prepared and incubated at the beginning and end of each test.
An additional plate containing a compound having known susceptibility patterns for the organisms being tested and belonging to the same antibiotic class as the test compound was also prepared and incubated as a further control, as well as to provide test-to-test comparability. Erythromycin A was used for this purpose.
After incubation, each plate was visually inspected. The minimum inhibitory concentration (MIC) was defined as the lowest concentration of drug yielding no growth, a slight haze, or sparsely isolated colonies on the inoculum spot as compared to the growth control.

[1] = Candida albicans CCH 442 (code TT)
[2] = Enterococcus faecism ATCC 8043 (code II)
[3] = Escherichia coli DC-2 (code SS)
[4] = Escherichia coli JUHL (code QQ)
[5] = Micrococcus luteus ATCC 4698 (code PP)
[6] = Micrococcus luteus ATCC 9341 (code OO)
[7] = Mycobacterium smegmatis ATCC 114 (code UU)
[8] = Nocardia Asteroides ATCC9970 (code VV)
[9] = Staphylococcus aureus 1775 (code GG)
[10] = Staphylococcus aureus A5177 (code BB)
[11] = Staphylococcus aureus A-5278 (code CC)
[12] = Staphylococcus aureus ATCC 6538P (code AA)
[13] = Staphylococcus aureus CMX 553 (code FF)
[14] = Staphylococcus aureus CMX 642A (code DD)
[15] = Staphylococcus aureus NCTC10649M (code EE)
[16] = Staphylococcus epidermidis 3519 (code HH)
[17] = Streptococcus agalactiae CMX 508 (code KK)
[18] = Streptococcus bovis A-5169 (code JJ)
[19] = Streptococcus pyogenes 930 (code MM)
[20] = Streptococcus pyogenes EES61 (code LL)
[21] = Streptococcus pyogenes PIU 2548 (code NN)
[22] = Haemophilis influenzae DILL AMP R (code WW)
[23] = Streptococcus Pneumonia 5649 (code ZZA)
[24] = Streptococcus Pneumonia 5979 (code ZZ)
[25] = Streptococcus Pneumonia ATCC6303 (code XX)
[26] = Streptococcus Pneumonia GYR 1171 (code YY)

SMILES | MIC [1] | MIC [2] | MIC [3] | MIC [4] | MIC (Escherichia coli SS (code RR)) | MIC [5] | MIC [6] | MIC [7] | MIC [8] | MIC [9] | MIC [10] | MIC [11] | MIC [12] | MIC [13] | MIC [14] | MIC [15] | MIC [16] | MIC [17] | MIC [18] | MIC [19] | further results
CCCO[C@@]1(C)C[C@@H](C)C(=O)[C@H](C)[C@@H](O)[C@](C)(O)[C@@H](CC)OC(=O)[C@H](C)C(=O)[C@H](C)[C@H]1O[C@@H]1O[C@H](C)C[C@H](N(C)C)[C@H]1O [Example 3, Compound of Formula (VIII): X is O, R is propyl] | > 100 µg/mL | 25 µg/mL | > 100 µg/mL | > 100 µg/mL | 50 µg/mL | 100 µg/mL | 12.5 µg/mL | > 100 µg/mL | 12.5 µg/mL | > 100 µg/mL | > 100 µg/mL | > 100 µg/mL | 25 µg/mL | 25 µg/mL | 100 µg/mL | 25 µg/mL | 50 µg/mL | 25 µg/mL | 25 µg/mL | > 100 µg/mL | MIC [20]: 100 µg/mL; MIC [21]: 100 µg/mL
CC[C@H]1OC(=O)[C@H](C)C(=O)[C@H](C)[C@@H](O[C@@H]2O[C@H](C)C[C@H](N(C)C)[C@H]2O)[C@@](C)(OCC=NO)C[C@@H](C)C(=O)[C@H](C)[C@@H](O)[C@]1(C)O [Example 5, Compound of Formula (VIII): X is O, R is —CH2CH═NOH] | > 100 µg/mL | 6.2 µg/mL | > 100 µg/mL | > 100 µg/mL | 6.2 µg/mL | 6.2 µg/mL | 0.78 µg/mL | > 100 µg/mL | 6.2 µg/mL | > 100 µg/mL | 6.2 µg/mL | > 100 µg/mL | 6.2 µg/mL | 12.5 µg/mL | 12.5 µg/mL | 12.5 µg/mL | 6.2 µg/mL | 1.56 µg/mL | 1.56 µg/mL | > 100 µg/mL | MIC [22]: > 128 µg/mL; MIC [23]: 16 µg/mL; MIC [24]: > 128 µg/mL; MIC [25]: 8 µg/mL; MIC [26]: 4 µg/mL; MIC [20]: 3.1 µg/mL; MIC [21]: 6.2 µg/mL
CC[C@H]1OC(=O)[C@H](C)C(=O)[C@H](C)[C@@H](O[C@@H]2O[C@H](C)C[C@H](N(C)C)[C@H]2O)[C@@](C)(OCC#N)C[C@@H](C)C(=O)[C@H](C)[C@@H](O)[C@]1(C)O [Example 7, Compound of Formula (VIII): X is O, R is —CH2CN] | > 100 µg/mL | 1.56 µg/mL | > 100 µg/mL | > 100 µg/mL | 3.1 µg/mL | 1.56 µg/mL | 0.39 µg/mL | > 100 µg/mL | 0.78 µg/mL | > 100 µg/mL | 3.1 µg/mL | > 100 µg/mL | 3.1 µg/mL | 3.1 µg/mL | 3.1 µg/mL | 3.1 µg/mL | 3.1 µg/mL | 0.78 µg/mL | 0.78 µg/mL | > 100 µg/mL | MIC [20]: 1.56 µg/mL; MIC [21]: 3.1 µg/mL
CC[C@H]1OC(=O)[C@H](C)C(=O)[C@H](C)[C@@H](O[C@@H]2O[C@H](C)C[C@H](N(C)C)[C@H]2O)[C@@](C)(OCCN)C[C@@H](C)C(=O)[C@H](C)[C@@H](O)[C@]1(C)O [Example 8, Compound of Formula (VIII): X is O, R is —CH2CH2NH2] | > 100 µg/mL | 6.2 µg/mL | > 100 µg/mL | > 100 µg/mL | 6.2 µg/mL | 12.5 µg/mL | 6.2 µg/mL | > 100 µg/mL | 12.5 µg/mL | > 100 µg/mL | 25 µg/mL | > 100 µg/mL | 25 µg/mL | 50 µg/mL | 6.2 µg/mL | 6.2 µg/mL | 100 µg/mL | 6.2 µg/mL | 3.1 µg/mL | > 100 µg/mL | MIC [20]: 6.2 µg/mL; MIC [21]: 12.5 µg/mL
CC[C@H]1OC(=O)[C@H](C)C(=O)[C@H](C)[C@@H](O[C@@H]2O[C@H](C)C[C@H](N(C)C)[C@H]2O)[C@@](C)(OCCNCc2ccccc2)C[C@@H](C)C(=O)[C@H](C)[C@@H](O)[C@]1(C)O [Example 9, Compound of Formula (VIII): X is O, R is —CH2CH2NHCH2-Phenyl] | > 100 µg/mL | 0.78 µg/mL | 25 µg/mL | 25 µg/mL | 0.39 µg/mL | 0.78 µg/mL | 0.2 µg/mL | 6.2 µg/mL | 0.2 µg/mL | > 100 µg/mL | 1.56 µg/mL | > 100 µg/mL | 3.1 µg/mL | 3.1 µg/mL | 6.2 µg/mL | 0.78 µg/mL | 3.1 µg/mL | 0.39 µg/mL | 0.05 µg/mL | > 100 µg/mL | MIC [22]: 16 µg/mL; MIC [23]: 4 µg/mL; MIC [24]: > 64 µg/mL; MIC [25]: 0.25 µg/mL; MIC [26]: 0.25 µg/mL; MIC [20]: 0.39 µg/mL; MIC [21]: 0.78 µg/mL
